Measurements published in BigSolDB 2.1.

O=C(Nc1ccc(F)cc1F)c1cccnc1Oc1cccc(C(F)(F)F)c1
solubility (mole fraction)
Settings | 278.15 K | 283.15 K | 288.15 K | 293.15 K | 298.15 K | 303.15 K | 308.15 K | 313.15 K | 318.15 K | 323.15 K
in acetone | 0.00903 | 0.0107 | 0.0127 | 0.0152 | 0.018 | 0.021 | 0.0247 | 0.029 | 0.0339 | 0.0408
in cyclohexane | – | 0.000103 | 0.000162 | 0.000229 | 0.000334 | 0.000458 | 0.000613 | 0.000806 | 0.00112 | 0.00147
in ethanol | 0.000251 | 0.000332 | 0.00043 | 0.000545 | 0.000681 | 0.000857 | 0.00107 | 0.00139 | 0.00173 | 0.00214
in isopropanol | 4.65e-05 | 7.36e-05 | 0.000116 | 0.000183 | 0.000282 | 0.000431 | 0.000665 | 0.001 | 0.00152 | 0.0022
in methanol | 0.000235 | 0.000293 | 0.000377 | 0.000474 | 0.0006 | 0.00075 | 0.000938 | 0.00117 | 0.00147 | 0.00187
in toluene | 0.00513 | 0.00638 | 0.00779 | 0.00954 | 0.0116 | 0.0142 | 0.0177 | 0.0215 | 0.0252 | 0.0303
